Values quoted from earlier work, collected in patent US20110064816A1 (DR. REDDY'S LABORATORIES LTD., priority 2008, published 2011).
Counter-ions that a name gives are not always drawn.

Details: exposed to heat, moisture, light and low pH conditions

Degradation from the carboxylic form to a lactone form: susceptible to degradation
SMILES: CC(C)c1c(C(=O)Nc2ccccc2)c(-c2ccccc2)c(-c2ccc(F)cc2)n1CC[C@@H](O)C[C@@H](O)CC(=O)O (relative stereo) [Atorvastatin calcium, [R-(R*,R*)]-2-(4-fluorophenyl)-β,δ-dihydroxy-5-(1-methylethyl)-3-phenyl-4-[(phenylamino)carbonyl]-1H-pyrrole-1-heptanoic acid, calcium salt (2:1) trihydrate]
